Test results from ChEMBL document CHEMBL1221225, “A small molecule that directs differentiation of human ESCs into the pancreatic lineage” (Nat Chem Biol, 2009).
Active and inactive are the calls of the source. No cut-off for these calls is given here.

Tests used:
AV3 [1] = experiment: Induction of mouse AV3 cell differentiation into pancreatic lineage assessed as increase in Nkx2.2 mRNA expression at 300 nM after 6 days by RT-PCR analysis pretreated with 1000 ng/ml recombinant mouse Nodal for 5 days; type: functional, cell-based
Homo sapiens [2] = species on record: Homo sapiens; experiment: Induction of C-peptide expression in human HUES8 insulin-producing cells at 300 nM after 4 days by immunocytochemistry relative to control; type: functional
HUES8 [3] = experiment: Induction of human HUES8 cell differentiation into pancreatic progenitor cell assessed as increase in NKX6.1 mRNA expression at 300 nM after 4 days by RT-PCR analysis cells pregrown in medium containing Wnt, activin, FGF10, KAAD-cyclopamine and retinoic acid; type: functional, cell-based
Homo sapiens [4] = species on record: Homo sapiens; experiment: Induction of human HUES4 cell differentiation into pancreatic progenitor cells assessed as increase in Pdx1-expression in cells pregrown with medium containing Wnt, activin, FGF10, KAAD-cyclopamine and retinoic acid at 300 nM after 4 days by Opera high content screening system relative to control; type: functional, cell-based
Mus musculus [5] = species on record: Mus musculus; experiment: Induction of MYOD expression in CD1 nude mouse mesoderm at 300 nM after 4 days by fluorescent confocal microscopy; type: functional
HUES8 [6] = experiment: Induction of human HUES8 cell differentiation into pancreatic progenitor cell assessed as increase in HNF6 mRNA expression at 300 nM after 4 days by RT-PCR analysis cells pregrown in medium containing Wnt, activin, FGF10, KAAD-cyclopamine and retinoic acid; type: functional, cell-based
Homo sapiens [7] = species on record: Homo sapiens; experiment: Induction of human HUES8 differentiation into definitive endoderm assessed as expression of SOX17 at 300 nM after 3 days by immunocytochemistry in presence of Wnt3a and activin A; type: functional
HUES8 [8] = experiment: Induction of human HUES8 cell differentiation into pancreatic progenitor cell assessed as increase in SOX9 mRNA expression at 300 nM after 4 days by RT-PCR analysis cells pregrown in medium containing Wnt, activin, FGF10, KAAD-cyclopamine and retinoic acid; type: functional, cell-based
[9] = Induction of human HUES8 cell differentiation into pancreatic progenitor cells assessed as increase in Pdx1-expression in cells pregrown with medium containing Wnt, activin, FGF10, KAAD-cyclopamine and retinoic acid at 300 nM after 4 days by Opera high content screening system relative to control; type: functional
[10] = Induction of cell proliferation in human HUES8 Pdx1 expressing cells assessed as expression of Ki67 at 300 nM after 4 days by immunocytochemistry; type: functional
Homo sapiens [11] = species on record: Homo sapiens; experiment: Induction of C-peptide release in human HUES8 insulin-producing cell at 300 nM after 4 days by ELISA; type: functional
HUES8 [12] = experiment: Induction of human HUES8 cell differentiation into pancreatic progenitor cell assessed as increase in HB9 mRNA expression at 300 nM after 4 days by RT-PCR analysis pregrown in medium containing Wnt, activin, FGF10, KAAD-cyclopamine and retinoic acid; type: functional, cell-based
Stomach = experiment: Induction of BARX1 expression in CD1 nude mouse stomach at 300 nM after 4 days by fluorescent confocal microscopy; type: functional, tissue-based
[13] = Induction of human HUES9 cell differentiation into pancreatic lineage assessed as increase in Pdx1-expression in cells pregrown with medium containing Wnt, activin, FGF10, KAAD-cyclopamine and retinoic acid at 1 uM after 1 day by Opera high content screening system; type: functional
Intestine [14] = experiment: Induction of CDX2 expression in CD1 nude mouse intestine at 300 nM after 4 days by fluorescent confocal microscopy; type: functional, tissue-based
[15] = Effect on glucagon expression in human HUES8 insulin-producing cells at 300 nM after 4 days by immunocytochemistry (reference value: 75.2 +/- 9.1%); type: functional
Mus musculus [16] = species on record: Mus musculus; experiment: Induction of desmin expression in CD1 nude mouse mesoderm at 300 nM after 4 days by fluorescent confocal microscopy; type: functional, tissue-based
[17] = Induction of insulin production in differentiated human HUES8 cells at 300 nM after 4 days by immunocytochemistry (reference value: 0%); type: functional
Heart = experiment: Induction of ISL1 expression in CD1 nude mouse heart at 300 nM after 4 days by fluorescent confocal microscopy; type: functional, tissue-based
Homo sapiens [18] = species on record: Homo sapiens; experiment: Induction of human HUES8 differentiation into pancreatic lineage assessed as increase in somatostatin-producing endocrine cells at 300 nM after 4 days by immunostaining; type: functional
[19] = Induction of human HUES9 cell differentiation into pancreatic lineage assessed as increase in Pdx1-expression in cells pregrown with medium containing Wnt, activin, FGF10, KAAD-cyclopamine and retinoic acid at 1 uM after 4 days by Opera high content screening system; type: functional
Mus musculus [20] = species on record: Mus musculus; experiment: Induction of mouse AV3 Pdx1-expressing cell differentiation assessed as increase in SOX9 expression at 300 nM after 6 days by immunohistochemistry pretreated with 1000 ng/ml recombinant mouse Nodal for 5 days; type: functional
[21] = Induction of human HUES9 cell differentiation into pancreatic lineage assessed as increase in Pdx1-expression in cells pregrown with medium containing Wnt, activin, FGF10, KAAD-cyclopamine and retinoic acid after 1 day by Opera high content screening system; type: functional, cell-based; details: HUES9, 24 h
Intestine [22] = experiment: Induction of FABP2 expression in CD1 nude mouse intestine at 300 nM after 4 days by fluorescent confocal microscopy; type: functional, tissue-based
[23] = Induction of mouse AV3 cell differentiation into pancreatic lineage assessed as increase in Pdx-1 expression at 300 nM after 6 days by immunohistochemistry pretreated with 1000 ng/ml recombinant mouse Nodal for 5 days (reference value: 4.0+/-1.5%); type: functional
AV3 [24] = experiment: Induction of mouse AV3 cell differentiation into pancreatic lineage assessed as increase in Pdx1 mRNA expression at 300 nM after 6 days by RT-PCR analysis pretreated with 1000 ng/ml recombinant mouse Nodal for 5 days; type: functional, cell-based
AV3 [25] = experiment: Induction of mouse AV3 cell differentiation into pancreatic lineage assessed as increase in Foxa2 mRNA expression at 300 nM after 6 days by RT-PCR analysis pretreated with 1000 ng/ml recombinant mouse Nodal for 5 days; type: functional, cell-based
Mus musculus [26] = species on record: Mus musculus; experiment: Induction of mouse AV3 Pdx1-expressing cell differentiation assessed as increase in Nkx6.1 expression at 300 nM after 6 days by immunohistochemistry pretreated with 1000 ng/ml recombinant mouse Nodal for 5 days; type: functional
[27] = Inhibition of PKC signaling in human HUES8 cells assessed as decrease in Pdx1-expressing cells at 4 uM after 4 days by immunocytochemistry in presence of ILV pregrown in medium with Wnt3a, activin A, FGF10, KAAD-cyclopamine and retinoic acid (reference value: 26.9+/-2.8%); type: cell-based
HUES8 [28] = experiment: Induction of human HUES8 cell differentiation into pancreatic progenitor cell assessed as increase in PROX1 mRNA expression at 300 nM after 4 days by RT-PCR analysis cells pregrown in medium containing Wnt, activin, FGF10, KAAD-cyclopamine and retinoic acid; type: functional, cell-based
Mus musculus [29] = species on record: Mus musculus; experiment: Induction of nestin expression in CD1 nude mouse ectoderm at 300 nM after 4 days by fluorescent confocal microscopy; type: functional, tissue-based

SMILES: CC(C)[C@H]1C(=O)N[C@H](CO)Cc2c[nH]c3cccc(c23)N1C [INDOLACTUM]
- Activity (AV3 [1]): Active
- Activity (Homo sapiens [2]): Active
- Activity (HUES8 [3]): Active
- Activity (Homo sapiens [4]): Active
- Activity (Mus musculus [5]): inactive
- Activity (HUES8 [6]): Active
- Activity (Homo sapiens [7]): inactive
- Activity (HUES8 [8]): Active
- Activity [9]: 26.9%
- Activity [10]: 0.1%
- Activity (Homo sapiens [11]): Active
- Activity (HUES8 [12]): Active
- Activity (Stomach): inactive
- Activity [13]: 5.3%
- Activity (Intestine [14]): inactive
- Activity [15]: 19.5%
- Activity (Mus musculus [16]): inactive
- Activity [17]: 0.5%
- Activity (Heart): inactive
- Activity (Homo sapiens [18]): Active
- Activity [19]: 10.9%
- Activity (Mus musculus [20]): Active
- EC50 [21]: 142 nM
- Activity (Intestine [22]): inactive
- Activity [23]: 50%
- Activity (AV3 [24]): Active
- Activity (AV3 [25]): Active
- Activity (Mus musculus [26]): Active
- inhibition [27]: 1.2%
- Activity (HUES8 [28]): Active
- Activity (Mus musculus [29]): inactive
